# Source: article PMC11054274, “Dual Antitubercular and Antileishmanial Profiles of Quinoxaline Di-N-Oxides Containing an Amino Acidic Side Chain” (Pharmaceuticals, 2024)
# Read-outs that look alike come from different tables or passages of the source.
# Tests used:
# [1] = tested on: Mycobacterium tuberculosis H37Rv; assay: In vitro activity against Mycobacterium tuberculosis H37Rv, microdilution AlamarBlue broth assay (BacTiter-Glo alternative read-out); type: cell-based; conditions: for IC90: read-out: IC90, antibacterial activity against Mtb H37Rv
# [2] = tested on: Leishmania amazonensis promastigotes; assay: Promastigote susceptibility assay (resazurin), L. amazonensis; type: cell-based; conditions: for IC50: Table S2, 48 h, read-out: L. amazonensis IC50 (promastigote); for IC50 / activity against L. amazonensis (in words): promastigotes; for L. amazonensis promastigote selectivity index (SI): SI = CC50 (J774 macrophages)/IC50
# Description: (§1) The following species of Leishmania were used: L. donovani (MHOM/IN/80/DD8), which was purchased (ATCC, Manassas, VA, USA), and L. amazonensis (MHOM/Br/79/Maria), which was kindly provided by Prof. Alfredo Toraño (Instituto de Salud Carlos III, Madrid, Spain). Promastigotes were cultured in Schneider’s Insect Medium supplemented with 10% heat-inactivated Fetal Bovine Serum (FBS) (SIGMA-Merck, Madrid, Spain) and 1000 U/L of penicillin plus 100 mg/L of streptomycin in 25 mL culture flasks at 26 °C.
# (§2) The activity of the compounds on Leishmania promastigotes was performed according to the method previously reported by us. Briefly, promastigotes (2.5 × 10^5 parasites/well) were cultured in 96-well plastic plates. The compounds were dissolved in dimethylsulfoxide (DMSO). Serial dilutions at 1:2 of the test compounds in fresh culture medium were performed (100, 50, 25, 12.5, 6.25, 3.12, 1.56 and 0.78 µg/mL) in a final volume of 200 µL; the solutions were then added to the parasite suspension. After an incubation period of 48 h at 26 °C, a volume of 20 μL of 2.5 mM resazurin solution in PBS was added and the plates were incubated for 3 h under the same conditions. Finally, the Relative Fluorescence Unit (RFU) (535ex–590em nm wavelength) was determined in a fluorimeter (Infinite 200 Tecan i-Control). Growth inhibition (%) was calculated by 100—[(RFU treated wells—RFU signal-to-noise)/(RFU untreated—RFU signal-to-noise) × 100]. All tests were carried out in triplicate and the IC50 was calculated by probit analysis using SPSS 17.0 Statistics Software. Miltefosine (Sigma-Merck, Madrid, Spain) was used as the reference drug.
# [3] = tested on: Leishmania donovani promastigotes; assay: Promastigote susceptibility assay (resazurin), L. donovani; type: cell-based; conditions: for IC50: Table S2, 48 h; for IC50 / activity against L. donovani (in words): promastigotes; for L. donovani promastigote selectivity index (SI): SI = CC50 (J774 macrophages)/IC50
# Description: as §1, §2
# [4] = tested on: Leishmania amazonensis amastigotes; assay: Intracellular amastigote assay in J774 macrophages, L. amazonensis; type: cell-based; conditions: for IC50: Table S3, intracellular amastigotes, 48 h, read-out: L. amazonensis IC50 (amastigote)
# Description: We performed an intracellular amastigote assay on L. amazonensis and L. donovani according to a fluorometric method reported by us. To carry out the in vitro macrophage infections, 5 × 10^4 cells were cultured in RPMI-1640 medium and then were infected with 5 × 10^5 promastigotes. In the L. donovani assays, the plates were incubated for 48 h at 37 °C, while in the L. amazonensis assays, they were incubated at 33 °C for the first 24 h and then the temperature was increased to 37 °C for the next 24 h. After, the culture medium was removed and the cells were washed with buffered RPMI-HEPES at pH 7.4 several times in order to eliminate the non-internalized promastigotes. A total of 100 µL of fresh medium tempered at 37 °C was added to the infected cells, which then were exposed to 100 µL of the test compounds in RPMI-1640 at different concentrations (100, 50, 25, 12.5, 6.25, 3.12, 1.56 and 0.78 µg/mL in a final volume of 200 µL) for 48 h at 37 °C. The culture medium was removed by centrifugation at 3500 rpm for 5 min (Centrifuge 5403 Eppendorf) and a lysis solution (0.02% sodium dodecyl sulfate in RPMI-HEPES) was added. After 20 min, the treated cells were harvested (centrifugation at 3500 rpm for 5 min at 4 °C) and the supernatants were replaced by 200 μL of fresh Schneider’s culture medium. The plates were then incubated at 26 °C for another 3 days to allow for the transformation of viable amastigotes into promastigotes and proliferation. Afterwards, 20 μL/well of 2.5 mM resazurin was added and incubated for another 3 h. Finally, URF was measured and IC50 was estimated as described above. All tests were carried out in triplicate. Miltefosine was used as the reference drug.
# J774 murine macrophages = assay: Cytotoxicity assay on macrophages (resazurin); type: cell-based; conditions: for CC50: 24 h exposure, read-out: Toxicity against J774 macrophages CC50
# Description: (§3) J774 murine macrophages were grown in RPMI-1640 medium (Sigma) supplemented with 10% heat-inactivated FBS (30 min at 56 °C) (SIGMA-Merck), penicillin G (100 U/mL) and streptomycin (100 µg/mL). For the experiments, cells in the pre-confluence phase were harvested with trypsin. Cell cultures were maintained at 37 °C in a humidified environment with 5% CO2.
# (§4) Cell viability was evaluated using a modification with resazurin of the colorimetric method described previously. J774 macrophages were seeded (5 × 10^4 cells/well) in 96-well flat-bottom microplates with 100 µL of RPMI-1640 medium. The cells were allowed to adhere for 4 h at 37 °C in 5% CO2, then different concentrations of the test compounds in 100 µL of the medium were added and exposed for 24 h. Growth controls were also included. To evaluate cell viability, 20 µL of a 2.5 mM resazurin solution was added and the plates were returned to the incubator for another 3 h. The reduction in resazurin was determined by measuring the fluorescence intensity (excitation wavelength, 535 nm; emission wavelength, 590 nm). Each concentration was assayed three times. The medium and controls were used in each test as blanks. The cytotoxic effect of the compounds was defined as the 50% reduction in cell viability of treated culture cells with respect to the untreated culture (CC50).
# [5] = Cytotoxicity assay on macrophages (resazurin); type: cell-based, murine; conditions: mouse, J774 macrophages, Table S2; 24 h exposure; read-out: Toxicity against J774 macrophages CC50
# Description: as §3, §4
# [6] = Table S1, Mtb H37Rv, read-out: IC50, antibacterial activity against Mtb H37Rv
# [7] = Mycobacterium tuberculosis, H37Rv strain, read-out: IC50 against Mycobacterium tuberculosis H37Rv
# [8] = Mycobacterium tuberculosis, Table S1, Mtb H37Rv
# [9] = Mycobacterium tuberculosis, Table S1, Mtb H37Rv, read-out: IC50, antibacterial activity against Mtb H37Rv
compound,measurement,setting,value
"COC(=O)CNC(=O)c1c(-c2ccccc2)[n+]([O-])c2ccccc2[n+]1[O-] [Compound 4a, N-(1,4-Dioxide-3-phenylquinoxaline-2-carbonyl)glycine methyl ester]",IC50,[1]; [6],26.3 µM
same,IC90,"[1]; Table S1, Mtb H37Rv",55.5 µM
same,IC50,[2],171 ± 8.5 µM
same,IC50,[3],103 ± 9.8 µM
same,IC50,[4],12.6 ± 0.3 µM
same,CC50,J774 murine macrophages; Table S2,850 µM
same,CC50,J774 murine macrophages; Table S3,850 µM
"CCc1nc(N)nc(N)c1-c1ccc(Cl)cc1 [Pyrimethamine, reference compound]",IC50,[1]; [7],37.4 µM
same,IC90,[1]; [8],75 µM
"COc1ccc2c(c1)[n+]([O-])c(-c1ccc(C)cc1)c(C(=O)O)[n+]2[O-] [Compound 6, 2-Carboxy-6-methoxy-3-(4-tolyl)quinoxaline 1,4-dioxide]",IC50,[1]; [9],45 µM
same,IC90,[1]; [8],76.4 µM
same,IC50,[2]; Leishmania amazonensis,20.5 ± 2.5 µM
same,L. amazonensis promastigote selectivity index (SI),[2],20.7
same,IC50,[3]; Leishmania donovani,6.2 ± 0.2 µM
same,L. donovani promastigote selectivity index (SI),[3],68.4
same,IC50,"[4]; Leishmania amazonensis, J774",31.9 ± 13.2 µM
same,L. amazonensis amastigote selectivity index (SI),[4]; SI = CC50 (J774 macrophages)/IC50,13.3
same,CC50 at 24 h,[5],0.424 mM
"NNC(=O)c1ccncc1 [Isoniazid, reference compound]",IC50,[1]; [9],0.18 µM
same,IC90,[1]; [8],0.29 µM
"N-(1,4-Dioxide-3-((4,5-dimethoxy-2-nitro-phenyl)quinoxaline-2-carbonyl)glycine benzyl ester [Compound 4e]",IC50,[1]; [6],25.2 µM
same,IC90,"[1]; Table S1, Mtb H37Rv",47.9 µM
same,IC50,[2],25.1 ± 0.56 µM
same,IC50,[3],34 ± 5.2 µM
same,toxicity to macrophages (in words),J774 murine macrophages,highly toxic to macrophages
same,CC50,J774 murine macrophages; Table S2,18.5 ± 3.4 µM
"N[C@@H]1CON=C1O [Cycloserine, reference compound]",IC50,[1]; [7],12.5 µM
same,IC90,[1]; [8],13.5 µM
"COc1ccc2c(c1)[n+]([O-])c(-c1ccc(C(F)(F)F)cc1)c(C(=O)NCC(=O)O)[n+]2[O-] [Compound 5h, 2-((Carboxymethyl)carbamoyl)-6-methoxy-3-(4-(trifluoromethyl)phenyl)quinoxaline 1,4-dioxide]",IC50,[1]; [9],16.4 µM
same,IC90,[1]; [8],22 µM
same,IC50,[2]; Leishmania amazonensis,> 229 µM
same,L. amazonensis promastigote selectivity index (SI),[2],> 8
same,IC50,[3]; Leishmania donovani,> 229 µM
same,CC50 at 24 h,[5],1.83 mM
"COC(=O)CNC(=O)c1c(-c2ccc(C(F)(F)F)cc2)[n+]([O-])c2cc(C)ccc2[n+]1[O-] [Compound 4l, N-(6-Methyl-1,4-dioxide-3-(4-trifluoromethylphenyl)quinoxaline-2-carbonyl)glycine methyl ester]",IC50,[1]; [6],7.2 µM
same,IC90,"[1]; Table S1, Mtb H37Rv",15.5 µM
same,IC50,[2],> 230 µM
same,activity against L. amazonensis (in words),[2],inactive
same,activity against L. donovani (in words),[3],inactive
same,CC50,J774 murine macrophages; Table S2,1380 µM
"Cc1ccc2c(c1)[n+]([O-])c(-c1ccc(F)cc1)c(C(=O)NCC(=O)O)[n+]2[O-] [Compound 5m, 2-((Carboxymethyl)carbamoyl)-3-(4-fluorophenyl)-6-methylquinoxaline 1,4-dioxide]",IC50,[1]; [9],17.2 µM
same,IC90,[1]; [8],35.1 µM
same,IC50,[2]; Leishmania amazonensis,> 270 µM
same,L. amazonensis promastigote selectivity index (SI),[2],> 30
same,IC50,[3]; Leishmania donovani,> 270 µM
same,CC50 at 24 h,[5],8.09 mM
"NCC[C@H](O)C(=O)N[C@@H]1C[C@H](N)[C@@H](O[C@H]2O[C@H](CN)[C@@H](O)[C@H](O)[C@H]2O)[C@H](O)[C@H]1O[C@H]1O[C@H](CO)[C@@H](O)[C@H](N)[C@H]1O [Amikacin, reference compound]",IC50,[1]; [9],0.07 µM
same,IC90,[1]; [8],0.08 µM
"COC(=O)CNC(=O)c1c(-c2ccccc2)[n+]([O-])c2cc(C(F)(F)F)ccc2[n+]1[O-] [Compound 4n, N-(1,4-Dioxide-6-trifluoromethyl-3-phenylquinoxaline-2-carbonyl)glycine methyl ester]",IC50,[1]; [6],11.9 µM
same,IC90,"[1]; Table S1, Mtb H37Rv",27.9 µM
same,IC50,[2],97.3 ± 4.3 µM
same,IC50,[3],43.5 ± 1.1 µM
same,CC50,J774 murine macrophages; Table S2,191 ± 29.3 µM
"COC(=O)CNC(=O)c1c(-c2ccc(C)cc2)[n+]([O-])c2cc(OC)ccc2[n+]1[O-] [Compound 4j, N-(6-Methoxy-1,4-dioxide-3-(4-methylphenyl)quinoxaline-2-carbonyl)glycine methyl ester]",IC50,[1]; [9],12.9 µM
same,IC90,[1]; [8],24.6 µM
same,IC50,[2]; Leishmania amazonensis,111 ± 4 µM
same,L. amazonensis promastigote selectivity index (SI),[2],2.9
same,IC50,[3]; Leishmania donovani,13.8 ± 9.5 µM
same,L. donovani promastigote selectivity index (SI),[3],23.2
same,CC50 at 24 h,[5],0.3186 ± 0.00084 mM
"CC[C@@H](CO)NCCN[C@@H](CC)CO [Ethambutol, reference compound]",IC50,[1]; [9],1.56 µM
same,IC90,[1]; [8],32.8 µM
COC(=O)CNC(=O)c1c(-c2ccc(OC)cc2)[n+]([O-])c2ccccc2[n+]1[O-] [Compound 4b],IC50,[1]; [6],40.6 µM
same,IC90,"[1]; Table S1, Mtb H37Rv",69.8 µM
same,IC50,[2],157 ± 7.8 µM
same,IC50,[3],261 ± 7.8 µM
same,CC50,J774 murine macrophages; Table S2,1570 µM
"COc1ccc2c(c1)[n+]([O-])c(-c1ccccc1)c(C(=O)NCC(=O)OCc1ccccc1)[n+]2[O-] [Compound 4f, N-(6-Methoxy-1,4-dioxide-3-(phenyl)quinoxaline-2-carbonyl)glycine benzyl ester]",IC50,[1]; [6],21.9 µM
same,IC90,"[1]; Table S1, Mtb H37Rv",47.9 µM
same,IC50,[2],> 261 µM
same,activity against L. amazonensis (in words),[2],inactive
same,IC50,[3],> 261 µM
same,activity against L. donovani (in words),[3],inactive
COC(=O)CNC(=O)c1c(-c2ccc(C(F)(F)F)cc2)[n+]([O-])c2ccccc2[n+]1[O-] [Compound 4c],IC50,[1]; [6],13.2 µM
same,IC90,"[1]; Table S1, Mtb H37Rv",25.9 µM
same,IC50,[2],> 238 µM
same,activity against L. amazonensis (in words),[2],inactive
same,IC50,[3],> 238 µM
same,activity against L. donovani (in words),[3],inactive
same,CC50,J774 murine macrophages; Table S2,6960 µM
"COc1ccc2c(c1)[n+]([O-])c(-c1ccccc1)c(C(=O)NCC(=O)O)[n+]2[O-] [Compound 5f, 2-((Carboxymethyl)carbamoyl)-6-methoxy-3-phenylquinoxaline 1,4-dioxide]",IC50,[1]; [9],4.28 µM
same,IC90,[1]; [8],9.86 µM
same,IC50,[2]; Leishmania amazonensis,> 271 µM
same,L. amazonensis promastigote selectivity index (SI),[2],> 30
same,IC50,[3]; Leishmania donovani,> 271 µM
same,CC50 at 24 h,[5],8.13 mM
"O=C(O)CNC(=O)c1c(-c2ccc(F)cc2)[n+]([O-])c2ccccc2[n+]1[O-] [Compound 5d, 2-((Carboxymethyl)carbamoyl)-3-(4-fluorophenyl)quinoxaline 1,4-dioxide]",IC50,[2]; Leishmania amazonensis,> 280 µM
same,L. amazonensis promastigote selectivity index (SI),[2],> 3.0
same,IC50,[3]; Leishmania donovani,> 280 µM
same,CC50 at 24 h,[5],0.84 mM
